Measurements as given in US20240254186A1, “GLP-1 Receptor Agonists Having Improved Pharmacological and Drug Delivery Properties” (priority 2021, published 2024).
pEC50: −log10 of the molar value. Like-named read-outs stand apart in the source and are kept apart here. Numbered stars: 1 amine (or outer) side, 2 acyl side, 3 side chain; on linkers, the order of the positions; unused ones are H or OH. Square brackets hold non-standard residues; d marks the D form. Side chains are listed from the residue outwards. Peptide text beside a SMILES is read from it. * marks the point of attachment. ξ: configuration not given here. Dap(Nα-HOOC(CH2)16CO)OH = O=C(O)CCCCCCCCCCCCCCCCC(=O)N[C@@H](CN*)C(=O)O; X6 = O=C([C@H](CCc1ccc(OC(=O)[*:3])cc1)N[*:1])[*:2]; Bip = N[C@@H](Cc1ccc(-c2ccccc2)cc1)C(=O)O; C18 diacid = O=C(O)CCCCCCCCCCCCCCCCC(=O)*; Hydrocinnamoyl(4-I) = O=C(CCc1ccc(I)cc1)*; X2 = O=C(CCc1ccc(I)cc1)N[C@@H](CN*)C(=O)O; αMePhe(2-F) = C[C@](N)(Cc1ccccc1F)C(=O)O; ξαMePhe(2-F) = CC(N)(Cc1ccccc1F)C(=O)O; hPhe = N[C@@H](CCc1ccccc1)C(=O)O; αMeF = C[C@](N)(Cc1ccccc1)C(=O)O; αMeP = C[C@@]1(C(=O)O)CCCN1; dDap = NC[C@@H](N)C(=O)O; ξαMeP = CC1(C(=O)O)CCCN1; ξαMeS = CC(N)(CO)C(=O)O; AEEA = NCCOCCOCC(=O)O; Aib = CC(C)(N)C(=O)O

Biological target: T1, hGLP1 receptor (Homo sapiens, UniProt P43220)
T1 construct: expressed in transfected cells; host or cells: HEK (human embryonic kidney) cells co-expressing hGLP1 receptor and a CRE-Luciferase construct
T1 sequence (P43220 24-463): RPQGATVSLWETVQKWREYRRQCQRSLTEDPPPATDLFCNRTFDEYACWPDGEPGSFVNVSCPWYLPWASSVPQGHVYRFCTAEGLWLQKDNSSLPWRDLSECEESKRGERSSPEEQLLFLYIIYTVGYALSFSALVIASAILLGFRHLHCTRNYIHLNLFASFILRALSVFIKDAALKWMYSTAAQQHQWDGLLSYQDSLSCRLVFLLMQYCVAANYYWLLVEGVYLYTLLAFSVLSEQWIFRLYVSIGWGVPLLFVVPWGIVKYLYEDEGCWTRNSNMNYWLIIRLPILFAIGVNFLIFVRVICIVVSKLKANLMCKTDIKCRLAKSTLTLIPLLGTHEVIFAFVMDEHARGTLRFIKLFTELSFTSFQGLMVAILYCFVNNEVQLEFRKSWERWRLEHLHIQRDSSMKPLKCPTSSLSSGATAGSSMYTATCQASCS
Test: cAMP HTRF agonist assay in HEK cells co-expressing the hGLP1 receptor and CRE-Luciferase construct
Assay type: cell-based
Conditions: for EC50: 0.1% albumin; for potency compared with the parent peptide analog (1-2), in words: replacement of Aib2, versus parent 1-2; for potency relative to the parent peptide (1-4), fold less potent: versus parent 1-4
Protocol: Human embryonic kidney cells (HEK) co-expressing the hGLP1 receptor and CRE-Luciferase construct were used to determine agonist potency in this assay. The cells were thawed briefly at 37° C., transferred to a sterile tube and re-suspended in complete media at 37° C. Cells were centrifuged at 1000 rpm for 5 minutes and cells collected; cells were re-suspended in assay buffer consisting of DPBS (GIBCO) with 500 μM of the phosphodiesterase inhibitor IBMX. […] The optimal cell density was determined to be 1000 cells/well; cells were added to wells in 384-well plates containing appropriate pre-prepared dilutions of compounds (test peptides or reference compound exendin-4), sealed and incubated with CO2 for 30 min. Test peptide solutions were diluted from 10 mM stock solutions; for most peptides an initial run was performed in duplicate from a maximal concentration of 1.0 μM, with 11 concentrations tested for each peptide using serial 1:3 dilution from this maximal concentration. […] The agonist assay was a homogeneous time-resolved fluorescence (HTRF) assay (Cisbio).
Following incubation of the cells for 30 minutes with test or reference peptides, 5 μL of the cAMP acceptor cAMP-d2, prepared previously as a working solution from frozen stock (1:20 dilution), was added to each well of the assay plate, along with 5 μL of anti-cAMP antibody-cryptate working solution (diluted 1:20 from frozen stock). The wells were incubated for 1 hour at room temperature, and fluorescence was then read at 665 and 615 nm with an Envision reader with TRF laser. Data were saved and analyzed using Prism software (GraphPad). Concentration-response analysis was performed using 4-parameter logistic fits of the resulting data, and EC50 values obtained for each test and reference compound.

[1] = read-out: cAMP EC50, nM (0.1% albumin), Table 6, C-terminal PK-modifier conjugates

C[C@@H](O)[C@H](NC(=O)CNC(=O)[C@H](CCC(=O)O)NC(=O)C(C)(C)NC(=O)[C@@H](N)Cc1c[nH]cn1)C(=O)N[C@@](C)(Cc1ccccc1)C(=O)N[C@H](C(=O)N[C@@H](CO)C(=O)N[C@@H](CC(=O)O)C(=O)N[C@@H](Cc1ccc(-c2ccccc2)cc1)C(=O)N[C@@H](Cc1ccc(-c2ccccc2)cc1)C(N)=O)[C@@H](C)O [3-16, H2N-His-Aib-Glu-Gly-Thr-α-MePhe-Thr-Ser-Asp-Bip-Bip-C(O)NH2] (H-H[Aib]EGT[αMeF]TSD[Bip][Bip]-NH2)
EC50 (cAMP EC50, nM (0.1% albumin), Table 1, Phe6 modifications): 0.32 nM

C[C@@H](O)[C@H](NC(=O)CNC(=O)[C@H](CCC(=O)O)NC(=O)C(C)(C)NC(=O)[C@@H](N)Cc1c[nH]cn1)C(=O)N[C@@](C)(Cc1ccccc1)C(=O)N[C@H](C(=O)N[C@@H](CO)C(=O)N[C@@H](CC(=O)O)C(=O)N[C@@H](Cc1ccc(-c2ccccc2)cc1)C(=O)N[C@@H](Cc1ccc(-c2ccccc2)cc1)C(N)=O)[C@@H](C)O [3-17, H2N-His-Aib-Glu-Gly-Thr-α-MePhe-Thr-Ser-Asp-Bip-Bip-C(O)NH2] (H-H[Aib]EGT[αMeF]TSD[Bip][Bip]-NH2)
pEC50 (Table 1, cell annotated (0% albumin), read-out: cAMP EC50): 10.10

CC(C)[C@H](NC(=O)[C@@H](N)Cc1c[nH]cn1)C(=O)N[C@@H](CCC(=O)O)C(=O)NCC(=O)N[C@H](C(=O)N[C@@](C)(Cc1ccccc1F)C(=O)N[C@H](C(=O)N[C@@H](CO)C(=O)N[C@@H](CC(=O)O)C(=O)N[C@@H](Cc1ccc(-c2ccccc2)cc1)C(=O)N[C@@H](Cc1ccc(-c2ccccc2)cc1)C(N)=O)[C@@H](C)O)[C@@H](C)O [3-39, H2N-His-Val-Glu-Gly-Thr-α-MePhe(2-F)-Thr-Ser-Asp-Bip-Bip-C(O)NH2] (H-HVEGT[αMePhe(2-F)]TSD[Bip][Bip]-NH2)
potency compared with the parent peptide analog (1-2), in words: slightly less potency

C[C@@H](O)[C@H](NC(=O)CNC(=O)[C@H](CCC(=O)O)NC(=O)[C@]1(C)CCCN1C(=O)[C@@H](N)Cc1c[nH]cn1)C(=O)N[C@@](C)(Cc1ccccc1F)C(=O)N[C@H](C(=O)N[C@@H](CO)C(=O)N[C@@H](CC(=O)O)C(=O)N[C@@H](Cc1ccc(-c2ccccc2)cc1)C(=O)N[C@@H](Cc1ccc(-c2ccccc2)cc1)C(N)=O)[C@@H](C)O [3-40, H2N-His-α-MePro-Glu-Gly-Thr-α-MePhe(2-F)-Thr-Ser-Asp-Bip-Bip-C(O)NH2] (H-H[αMeP]EGT[αMePhe(2-F)]TSD[Bip][Bip]-NH2)
potency compared with the parent peptide analog (1-2), in words: significantly greater potency

C[C@@H](O)[C@H](NC(=O)CNC(=O)[C@H](CCC(=O)O)NC(=O)C1(C)CCCN1C(=O)[C@@H](N)Cc1c[nH]cn1)C(=O)NC(C)(Cc1ccccc1F)C(=O)NC(C)(CO)C(=O)N[C@@H](CO)C(=O)N[C@@H](CC(=O)O)C(=O)N[C@@H](Cc1ccc(-c2ccccc2)cc1)C(=O)N[C@@H](Cc1ccc(-c2ccccc2)cc1)C(N)=O (some centres unmarked) [3-59] (H-H[ξαMeP]EGT[ξαMePhe(2-F)][ξαMeS]SD[Bip][Bip]-NH2)
EC50 (cAMP EC50, nM (0.1% albumin), Table 4, N-terminal modifications): 20.9 nM

C[C@@H](O)[C@H](NC(=O)CNC(=O)[C@H](CCC(=O)O)NC(=O)C(C)(C)NC(=O)[C@@H](N)Cc1c[nH]cn1)C(=O)N[C@@](C)(Cc1ccccc1F)C(=O)N[C@H](C(=O)N[C@@H](CO)C(=O)N[C@@H](CC(=O)O)C(=O)N[C@@H](Cc1ccc(-c2ccccc2)cc1)C(=O)N[C@@H](CCc1ccccc1)C(=O)O)[C@@H](C)O [4-1, H2N-His-Aib-Glu-Gly-Thr-α-MePhe(2-F)-Thr-Ser-Asp-Bip-Hph-C(O)OH] (H-H[Aib]EGT[αMePhe(2-F)]TSD[Bip][hPhe]-OH)
potency relative to the parent peptide (1-4), fold less potent: about 30 fold

C[C@@H](O)[C@H](NC(=O)CNC(=O)[C@H](CCC(=O)O)NC(=O)C(C)(C)NC(=O)[C@@H](N)Cc1c[nH]cn1)C(=O)N[C@@](C)(Cc1ccccc1F)C(=O)N[C@H](C(=O)N[C@@H](CO)C(=O)N[C@@H](CC(=O)O)C(=O)N[C@@H](Cc1ccc(-c2ccccc2)cc1)C(=O)N[C@@H](CCc1ccccc1)C(=O)NCCOCCOCC(=O)NCCOCCOCC(=O)NC[C@H](NC(=O)CCCCCCCCCCCCCCCCC(=O)O)C(=O)O)[C@@H](C)O [4-36, H2N-His-Aib-Glu-Gly-Thr-α-MePhe(2-F)-Thr-Ser-Asp-Bip-Hph-C(O)NH-RY2] (H-H[Aib]EGT[αMePhe(2-F)]TSD[Bip][hPhe][AEEA][AEEA]-{Dap(Nα-HOOC(CH2)16CO)OH})
potency relative to the parent peptide (1-4), fold less potent: 15 fold

C[C@@H](O)[C@H](NC(=O)CNC(=O)[C@H](CCC(=O)O)NC(=O)C(C)(C)NC(=O)[C@@H](N)Cc1c[nH]cn1)C(=O)N[C@@](C)(Cc1ccccc1F)C(=O)N[C@H](C(=O)N[C@@H](CO)C(=O)N[C@@H](CC(=O)O)C(=O)N[C@@H](Cc1ccc(-c2ccccc2)cc1)C(=O)N[C@@H](CCc1ccccc1)C(=O)NCCOCCOCC(=O)NCCOCCOCC(=O)NCCOCCOCC(=O)NC[C@H](NC(=O)CCc1ccc(I)cc1)C(=O)O)[C@@H](C)O [4-37, H2N-His-Aib-Glu-Gly-Thr-α-MePhe(2-F)-Thr-Ser-Asp-Bip-Hph-C(O)NH-RY3] (H-H[Aib]EGT[αMePhe(2-F)]TSD[Bip][hPhe][AEEA][AEEA][AEEA]-X2)
EC50 [1]: 4.08 nM | potency relative to the parent peptide (1-4), fold less potent: equipotency

C[C@@H](O)[C@H](NC(=O)CNC(=O)[C@H](CCC(=O)O)NC(=O)C(C)(C)NC(=O)[C@@H](N)Cc1c[nH]cn1)C(=O)N[C@@](C)(Cc1ccccc1F)C(=O)N[C@H](C(=O)N[C@@H](CO)C(=O)N[C@@H](CC(=O)O)C(=O)N[C@@H](Cc1ccc(-c2ccccc2)cc1)C(=O)N[C@@H](CCc1ccc(OC(=O)NCCOCCOCC(=O)NCCOCCOCC(N)=O)cc1)C(N)=O)[C@@H](C)O [4-38, H2N-His-Aib-Glu-Gly-Thr-α-MePhe(2-F)-Thr-Ser-Asp-Bip-Hph(4-OR4)-C(O)NH2] (H-H[Aib]EGT[αMePhe(2-F)]TSD[Bip][X6]([AEEA-AEEA-NH2])-NH2)
EC50 [1]: 320 nM

C[C@@H](O)[C@H](NC(=O)CNC(=O)[C@H](CCC(=O)O)NC(=O)C(C)(C)NC(=O)[C@@H](N)Cc1c[nH]cn1)C(=O)N[C@@](C)(Cc1ccccc1F)C(=O)N[C@H](C(=O)N[C@@H](CO)C(=O)N[C@@H](CC(=O)O)C(=O)N[C@@H](Cc1ccc(-c2ccccc2)cc1)C(=O)N[C@@H](CCc1ccc(OC(=O)NCCOCCOCC(=O)NCCOCCOCC(=O)NC[C@H](NC(=O)CCCCCCCCCCCCCCCCC(=O)O)C(=O)O)cc1)C(N)=O)[C@@H](C)O [4-39, H2N-His-Aib-Glu-Gly-Thr-α-MePhe(2-F)-Thr-Ser-Asp-Bip-Hph(4-OR5)-C(O)NH2] (H-H[Aib]EGT[αMePhe(2-F)]TSD[Bip][X6]([AEEA-AEEA-Dap(Nα-HOOC(CH2)16CO)OH])-NH2)
EC50 [1]: 232 nM

C[C@@H](O)[C@H](NC(=O)CNC(=O)[C@H](CCC(=O)O)NC(=O)C(C)(C)NC(=O)[C@@H](N)Cc1c[nH]cn1)C(=O)N[C@@](C)(Cc1ccccc1F)C(=O)N[C@H](C(=O)N[C@@H](CO)C(=O)N[C@@H](CC(=O)O)C(=O)N[C@@H](Cc1ccc(-c2ccccc2)cc1)C(=O)N[C@@H](CCc1ccc(OC(=O)NCCOCCOCC(=O)NCCOCCOCC(=O)NCCOCCOCC(=O)NC[C@H](NC(=O)CCc2ccc(I)cc2)C(=O)O)cc1)C(N)=O)[C@@H](C)O [4-40, H2N-His-Aib-Glu-Gly-Thr-α-MePhe(2-F)-Thr-Ser-Asp-Bip-Hph(4-OR6)-C(O)NH2] (H-H[Aib]EGT[αMePhe(2-F)]TSD[Bip][X6]([AEEA-AEEA-AEEA-X2])-NH2)
EC50 [1]: 49.7 nM

C[C@@H](O)[C@H](NC(=O)CNC(=O)[C@H](CCC(=O)O)NC(=O)C(C)(C)NC(=O)[C@@H](N)Cc1c[nH]cn1)C(=O)N[C@@](C)(Cc1ccccc1F)C(=O)N[C@H](C(=O)N[C@@H](CO)C(=O)N[C@@H](CC(=O)O)C(=O)N[C@@H](Cc1ccc(-c2ccccc2)cc1)C(=O)N[C@@H](Cc1ccc(-c2ccccc2)cc1)C(=O)NCCOCCOCC(=O)NCCOCCOCC(=O)N[C@H](CNC(=O)CCCCCCCCCCCCCCCCC(=O)O)C(N)=O)[C@@H](C)O [4-46, H2N-His-Aib-Glu-Gly-Thr-α-MePhe(2-F)-Thr-Ser-Asp-Bip-Bip-C(O)NH-RY8] (H-H[Aib]EGT[αMePhe(2-F)]TSD[Bip][Bip][AEEA][AEEA][dDap](C18 diacid)-NH2)
EC50 [1]: 5.4 nM

C[C@@H](O)[C@H](NC(=O)CNC(=O)[C@H](CCC(=O)O)NC(=O)C(C)(C)NC(=O)[C@@H](N)Cc1c[nH]cn1)C(=O)N[C@@](C)(Cc1ccccc1F)C(=O)N[C@H](C(=O)N[C@@H](CO)C(=O)N[C@@H](CC(=O)O)C(=O)N[C@@H](Cc1ccc(-c2ccccc2)cc1)C(=O)N[C@@H](Cc1ccc(-c2ccccc2)cc1)C(=O)NCCOCCOCC(=O)NCCOCCOCC(=O)NCCOCCOCC(=O)N[C@H](CNC(=O)CCc1ccc(I)cc1)C(N)=O)[C@@H](C)O [4-47, H2N-His-Aib-Glu-Gly-Thr-α-MePhe(2-F)-Thr-Ser-Asp-Bip-Bip-C(O)NH-RY9] (H-H[Aib]EGT[αMePhe(2-F)]TSD[Bip][Bip][AEEA][AEEA][AEEA][dDap](Hydrocinnamoyl(4-I))-NH2)
EC50 [1]: 0.6 nM
